Test results reported in US20050234066A1, “Alpha substituted carboxylic acids” (Agouron Pharmaceuticals, Inc., priority 2004, published 2005).

Legend:
PPAR-γ = target: T1, PPAR-γ (Homo sapiens, UniProt P37231); assay: Scintillation Proximity Assay (SPA), displacement of 3H labeled darglitazone; format: binding; details: 3H darglitazone displacement, read-out: PPAR-gamma Ki
T1 sequence (P37231 1-505): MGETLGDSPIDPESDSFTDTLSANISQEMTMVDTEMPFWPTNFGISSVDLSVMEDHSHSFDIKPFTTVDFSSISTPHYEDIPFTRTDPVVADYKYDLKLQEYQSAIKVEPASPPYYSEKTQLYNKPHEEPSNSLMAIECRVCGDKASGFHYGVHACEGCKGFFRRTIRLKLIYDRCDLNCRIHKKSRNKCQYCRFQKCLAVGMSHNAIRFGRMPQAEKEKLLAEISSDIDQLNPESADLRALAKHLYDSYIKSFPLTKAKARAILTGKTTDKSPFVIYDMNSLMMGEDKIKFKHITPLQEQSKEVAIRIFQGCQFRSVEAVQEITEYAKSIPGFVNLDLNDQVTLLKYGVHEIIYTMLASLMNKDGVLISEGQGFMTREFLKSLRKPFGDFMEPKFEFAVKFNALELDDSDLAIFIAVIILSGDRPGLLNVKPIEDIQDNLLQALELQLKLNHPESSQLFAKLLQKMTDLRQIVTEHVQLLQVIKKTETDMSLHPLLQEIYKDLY

PPAR-α = target: T2, PPAR-α (Homo sapiens, UniProt Q07869); assay: Scintillation Proximity Assay (SPA), displacement of 3H labeled GW2331; format: binding; details: 3H GW2331 displacement, read-out: PPAR-alpha Ki
T2 sequence (Q07869 1-468): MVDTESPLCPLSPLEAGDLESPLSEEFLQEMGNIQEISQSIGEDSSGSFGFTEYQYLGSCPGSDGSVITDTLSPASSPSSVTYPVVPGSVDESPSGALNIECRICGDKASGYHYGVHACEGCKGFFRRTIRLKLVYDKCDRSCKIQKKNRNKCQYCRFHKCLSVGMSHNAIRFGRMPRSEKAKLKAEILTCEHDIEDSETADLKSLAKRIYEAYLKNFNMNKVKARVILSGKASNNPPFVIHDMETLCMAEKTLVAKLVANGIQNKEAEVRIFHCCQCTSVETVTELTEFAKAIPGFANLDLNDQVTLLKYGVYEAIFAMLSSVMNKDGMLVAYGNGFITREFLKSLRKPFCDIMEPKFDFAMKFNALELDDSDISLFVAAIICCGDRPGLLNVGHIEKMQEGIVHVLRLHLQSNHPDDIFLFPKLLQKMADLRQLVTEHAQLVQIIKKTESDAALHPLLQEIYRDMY
Text: Scintillatian Proximity Assay (SPA) Assays
In the SPA assay, 3H labeled darglitazone (for PPAR-γ) or GW2331 (for PPAR-α) is bound to the PPAR protein captured on SPA polylysine beads and generates radioactive count signal that can be detected by TopCounts (Packard). The PPAR-bound 3H labeled ligand can be displaced by an unlabeled compound. The Ki of the compound can be then determined by the extent of displacement at various compound concentrations. Reagents: • SPA polylysine beads, which can be purchased from Amersham Bioscience. • H labeled Darglitazone for PPAR-γ. • H labeled GW2331 for PPAR-α. • PPAR proteins. • Buffer—PBS, 10% glycerol, 14 mM beta-mercaptoethanol.

| SMILES | Ki (PPAR-γ) [µM] | Ki (PPAR-α) [µM] |
| --- | --- | --- |
| Cc1cccc(-c2nc(CCOc3ccc(CC4(C(=O)O)CCCO4)cc3)c(C)o2)c1 (stereo not shown) [Example C-89] | 0.04 | 0.03 |
| Cc1oc(-c2ccc(C(F)(F)F)cc2)nc1CCOc1ccc(CC2(C(=O)O)CCCO2)cc1 (stereo not shown) [Example C-90] | 0.017 | 0.11 |
| Cc1oc(-c2ccccc2)nc1CCOc1ccc2cc(CC3(C(=O)O)CCCO3)ccc2c1 (stereo not shown) [Example C-91] | 0.39 | 1.8 |
| Cc1oc(-c2ccccc2)nc1CCCOc1ccc2cc(CC3(C(=O)O)CCCO3)ccc2c1 (stereo not shown) [Example C-92] | 1.1 | 2.8 |
| Cc1oc(-c2ccccc2)nc1COc1ccc2cc(CC3(C(=O)O)CCCO3)ccc2c1 (stereo not shown) [Example C-93] | 0.011 | 0.3 |
| Cc1oc(-c2ccccc2)nc1CCOc1ccc(CC2(c3nnn[nH]3)CCCO2)cn1 (stereo not shown) [Example C-95, 2-[2-(5-Methyl-2-phenyl-oxazol-4-yl)-ethoxy]-5-[2-(1H-tetrazol-5-yl)-tetrahydro-furan-2-ylmethyl]-pyridine] | 0.97 | 8.6 |
| COC(Cc1ccc(OCCc2nc(-c3ccc(C#N)cc3)oc2C)nc1)C(=O)O [Example D-02] | 0.46 | 0.29 |
| COC(Cc1ccc(OCCc2nc(-c3cccc(C)c3)oc2C)nc1)C(=O)O [Example D-03] | 0.011 | 0.3 |
| COC(Cc1ccc(OCCc2nc(-c3ccc(Cl)cc3)oc2C)nc1)C(=O)O [Example D-04] | 0.44 | 0.29 |
| COc1ccc(-c2nc(CCOc3ccc(CC(OC)C(=O)O)cn3)c(C)o2)cc1 [Example D-07] | 0.017 | 0.32 |
| COc1cccc(-c2nc(CCOc3ccc(CC(OC)C(=O)O)cn3)c(C)o2)c1 [Example D-08] | 0.002 | 0.015 |
| COC(Cc1ccc(OCCc2nc(-c3ccc(C(F)(F)F)cc3)oc2C)nc1)C(=O)O [Example D-09] | 0.061 | 0.05 |
| COC(Cc1ccc(OCCc2nc(-c3ccc(C)cc3)oc2C)nc1)C(=O)O [Example D-10] | 0.019 | 0.033 |
| CCS(=O)(=O)Oc1ccc(CCOc2ccc(CC(OC)C(=O)O)cn2)cc1 [Example D-11] | 6.2 | 5.1 |
| COC(Cc1ccc(OCCc2ccc(Oc3ccccc3)cc2)nc1)C(=O)O [Example D-13] | 0.36 | 0.19 |
| CCOC(Cc1ccc(OCCc2ccc(Oc3ccccc3)cc2)nc1)C(=O)O [Example D-14] | 1.5 | 2.6 |

| SMILES | Ki (PPAR-γ) [µM] | Ki (PPAR-α) [µM] |
| --- | --- | --- |
| CCOC(Cc1ccc(OCCc2nc(-c3ccc(Cl)cc3)oc2C)nc1)C(=O)O [Example D-15] | 0.35 | 0.22 |
| CCOC(Cc1ccc(OCCc2ccc(OS(=O)(=O)c3ccccc3)cc2)nc1)C(=O)O [Example D-17] | 0.031 | 0.91 |
| CCOC(Cc1ccc(OCCc2ccc(OS(=O)(=O)CC)cc2)nc1)C(=O)O [Example D-18] | 0.45 | 0.62 |
| CCOC(Cc1ccc(OCCc2ccc(OS(C)(=O)=O)cc2)nc1)C(=O)O [Example D-19] | 1.7 | 6.4 |
| CCOC(Cc1ccc(OCCc2ccc(OC(F)(F)F)cc2)nc1)C(=O)O [Example D-20] | 0.48 | 0.84 |
| CCOc1ccc(CCOc2ccc(CC(OCC)C(=O)O)cn2)cc1 [Example D-21] | 2.1 | 10 |
| COC(C)(Cc1ccc(OCCCc2nc(-c3ccccc3)oc2C)cn1)C(=O)O [Example D-28] | 1.6 | 4.8 |
| COC(C)(Cc1ccc(OCCc2nc(-c3ccccc3)oc2C)cn1)C(=O)O [Example D-29] | 0.4 | 0.8 |
| COC(C)(Cc1ccc(OCCc2nc(-c3ccc(C(F)(F)F)cc3)oc2C)nc1)C(=O)O [Example D-31] | 1 | 0.088 |
| COC(C)(Cc1ccc(OCCc2nc(C3CCCCC3)oc2C)nc1)C(=O)O [Example D-32] | 1.5 | 0.059 |
| COC(C)(Cc1ccc(OCCc2nc(-c3ccccc3)sc2C)nc1)C(=O)O [Example D-33] | 0.69 | 0.55 |
| COC(C)(Cc1ccc(OCCN(C)c2nc3ccccc3o2)nc1)C(=O)O [Example D-34] | 9.1 | 3.2 |
| COC(C)(Cc1ccc(OCCc2nc(-c3cccc(C)c3)oc2C)nc1)C(=O)O [Example D-36] | 0.23 | 0.73 |
| CCOc1ccc(-c2nc(CCOc3ccc(CC(C)(OC)C(=O)O)cn3)c(C)o2)cc1 [Example D-37] | 0.53 | 4.7 |
| COC(C)(Cc1ccc(OCCc2ccc(Oc3ccccc3)cc2)nc1)C(=O)O [Example D-40] | 9.6 | 1.8 |
| COC(C)(Cc1ccc(OCCc2nc(-c3cccc(F)c3)oc2C)nc1)C(=O)O [Example D-42] | 0.7 | 1 |
